# Reference: patent US9360486B2, “Allergen fragments” (Biomay AG, priority 2007, dated 2016)
# Tested on: Amb a 1-specific T cell lines (TCL)
# Test: T cell epitope mapping of Amb a 1.3: proliferation (3H-thymidine uptake) of TCL stimulated with synthetic peptides
# Type: cell-based, human
# Settings: for T cell activating region recognized by % of patients: classes of prevalence referring to SI>5, 48 TCL; for No. positive patients SI > 3 / No. positive patients SI > 5 / % (positive patients SI > 3) / % (positive patients SI > 5): TCL from 48 ragweed pollen-allergic patients, peptide 5 μg/ml; for No. positive patients SI > 3 / No. positive patients SI > 5: 3H-thymidine uptake after 48 hrs; for No. positive patients SI > 3 / % (positive patients SI > 3): stimulation index > 3; for No. positive patients SI > 5 / % (positive patients SI > 5): stimulation index > 5
# Source text: The T cell response to Amb a 1 was characterized in detail using the established in vitro culture system (Jahn-Schmid et al., J. Immunol. 169: 6005-11, 2002; Jahn-Schmid et al., J. Allergy Clin. Immunol., 115: 399-404, 2005). In total, 85 clinically well-defined patients (75 from Vienna/10 from Milano) with typical case history, positive skin prick test and CAP/RAST tests for ragweed extract were included.
# Peripheral blood mononuclear cells (PBMC) were isolated from heparinized blood of allergic patients by Ficoll density gradient centrifugation. To generate allergen-specific T cell lines (TCL) and T cell clones (TCC), 1.5×10^6 PBMC were stimulated with optimal doses of ragweed or mugwort extract (4 μg/ml) or rAmb a 1.3 (10 μg/ml) in 24-well flat-bottomed culture plates (Costar, USA). After 5 days human rIL-2 (10 U/ml, Boehringer, Mannheim, Germany) were added and cultures were continued for additional 7 days. Then, T cell blasts were isolated by density centrifugation. The majority of T cell blasts was further expanded with IL-2 and irradiated PBMC. A small number of T cell blasts were used to establish monoclonal T cell cultures by limiting dilution: 0.3 T cells/well were seeded into 96 well round bottom plates (Nunclone) in the presence of 2×10^5 irradiated (60 Gy) PBMC, 0.25% v/v PHA (Gibco, USA) and rIL-2 (4 U/well) in the medium mentioned above. After 14-21 days, growing microcultures were expanded at weekly intervals with irradiated PBMC and rIL-2. The specificity of TCC was assessed in proliferation assays using irradiated allogeneic or HLA-matched PBMC or irradiated EBV-transformed allogeneic B-cells and 5 μg/ml Amb a 1.3. After 48 hours, cellular uptake of tritiated (^3H)-thymidine was performed to measure proliferation in counts per minute (cpm). When the stimulation index (SI; ratio between cpm obtained in cultures containing TCC plus autologous APC plus antigen, and cpm obtained in cultures containing TCC and APC alone) was >10, responses were considered as positive. Allergen-specific TCC were expanded by alternating turns of stimulation with autologous irradiated APC and allergen or with allogeneic feeder cells and rIL-2.
# Amb a 1-specific TCL and TCC were used to identify T cell epitopes of Amb a 1.3. T cell cultures were stimulated with a panel of 121 synthetic 12-mer peptides and one 13-mer representing the C-terminal peptide of Amb a 1.3 (Pepset, Biotrend, Germany). Peptides had been synthesized according to the Amb a 1.3 amino acid sequence and overlapped for 9 amino acid residues with the neighbouring peptides (Table 1). Peptides were used at a concentration of 5 μg/ml for stimulation and proliferation of T cell cultures was determined after 48 hrs by ^3H-thymidine-uptake. Because of the frequently observed high background caused by auto-reactivity in TCL, the mean of the cpm observed with the ten least stimulating peptides (none of the peptides was toxic) was used as negative control in calculations of SI. Throughout this manuscript, a peptide comprised one T cell epitope when the stimulation index was at least 3.0.
# T cell epitope mapping of Amb a 1.3 was performed evaluating 48 TCL from different patients ([…]), which had been initiated with ragweed extract (containing the natural allergen) or rAmb a 1.3 (Table 2). TCL induced with either ragweed extract or rAmb a 1.3 from the same individual recognized similar T cell epitopes (Table 2; FIG. 7). […] Therefore, their data were combined for further analysis (Table 3). Typical for many inhalant allergens, multiple T cell activating regions were detected in Amb a 1.3. The number of peptides recognized by T cells from a single individual ranged from 2 to maximum 60 peptides with a mean of 17.8 peptides (median=16/for SI>3; resp. 0-36/11.9/12 for SI>5) (see Table 3). In total, 26 relevant (i.e. recognized by ≧10% of patients studied) T cell activating regions comprising 12-18 aa were identified. […]
Sequence,reactivity with T cells isolated from allergic individuals,T cell activating region recognized by % of patients,No. positive patients SI > 3,No. positive patients SI > 5,% (positive patients SI > 3),% (positive patients SI > 5),T cell reactivity with samples from individuals suffering from ragweed pollen allergy
GEAAIKLTSSAGVLSCRP (Amb a 1 fragment) [Peptide 118-120],reactivity with T cells,recognized by 20.8%,,,,,
GKWGDVYTVTSN (Amb a 1 fragment) [Peptide 20],reactivity with T cells,recognized by 14.6%,9,7,18.8%,14.6%,
GMIKSNDGPPIL (Amb a 1 fragment) [Peptide 52],reactivity with T cells,recognized by 56.3%,31,27,64.6%,56.3%,high T cell reactivity
GNRFLAPDDQIK (Amb a 1 fragment) [Peptide 96],reactivity with T cells,,5,4,10.4%,8.3%,
GRGVKVEIINGG (Amb a 1 fragment) [Peptide 40],,,3,4,6.3%,8.3%,
GSSQIWIDHCSL (Amb a 1 fragment) [Peptide 60],reactivity with T cells,,30,28,62.5%,58.3%,
GSSQIWIDHCSLSKS (Amb a 1 fragment) [Peptide 60-61],reactivity with T cells,,,,,,
GSTHVTISNCKF (Amb a 1 fragment) [Peptide 68],reactivity with T cells,recognized by 33.3%,20,16,41.7%,33.3%,high T cell reactivity
GVGEILPSVNET (Amb a 1 fragment) [Peptide 2],,,2,1,4.2%,2.1%,
HVTISNCKFTQQ (Amb a 1 fragment) [Peptide 69],reactivity with T cells,,8,4,16.7%,8.3%,
IDHCSLSKSFDG (Amb a 1 fragment) [Peptide 62],,,3,2,6.3%,4.2%,
IFVTSGSDPVLT (Amb a 1 fragment) [Peptide 110],reactivity with T cells,,13,11,27.1%,22.9%,
IGGSSAPTILCQ (Amb a 1 fragment) [Peptide 92],,,3,2,6.3%,4.2%,
IHDVKVLPGGMI (Amb a 1 fragment) [Peptide 49],,,3,2,6.3%,4.2%,
IIFKNDMVINLN (Amb a 1 fragment) [Peptide 32],,,2,1,4.2%,2.1%,
